The results in this text go back to patent US20240150396A1 (The Texas A&M University System, priority 2021, published 2024).

“And” between values parts separate entries of the source, which are not always exact repeats. Equal entries are not always repeated. Where two headings read alike, the source gives them in different places.

For orientation: CC50 means the concentration giving 50% cytotoxicity.

One series deals with cruzain (Trypanosoma cruzi, UniProt P25779). Description: biochemical. Conditions: for Ki: pH 7.5. The gist of the method: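 Fluorogenic assay at 25 °C following AMC release (ex 360/em 460 nm), with typically 0.2 nM cruzain and 10% DMSO, at pH 7.5 or 5.5 buffer with 5 mM DTT.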
Series [1] deals with T. cruzi (Ca-I/72) in C2C12 murine cardiomyoblasts. Description: T. cruzi-infected murine cardiomyoblasts (C2C12). In kind it is cell-based, Trypanosoma cruzi. Conditions: C2C12 murine cardiomyoblasts; read-out: EC50 T. cruzi-infected cardiomyoblasts. The gist of the method:
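C2C12 mouse cardiomyoblasts infected with T. cruzi Ca-I/72 (10^3 and 10^4 parasites) and exposed to 3-fold serial dilutions of inhibitor from a 10 μM maximum, 48 h at 37° C. After PFA fixation and DAPI staining, automated imaging quantified parasites and host cells, giving EC50 and host CC50.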

Series [2] deals with SARS-CoV-2 in Vero E6 cells. The series can be described thus: Anti-CoV-2 activity in Vero E6 cells. The series is classed as cell-based.
For series [3], the system named is SARS-CoV-2 in A549/ACE2 cells. In kind it is cell-based. Conditions: read-out: Anti-CoV-2 EC50 A549/ACE2 Cells.
Series [4] relates to esterase from porcine liver. The series can be described thus: Hydrolysis of SMAI prodrugs by porcine esterase. In kind it is in vitro ADME. Conditions: for half-life of conversion to compound 36: porcine esterase, buffer pH 7.5, 37° C. As for the experimental part: Evaluation of SMAI Prodrugs. Esterase from porcine liver was obtained as an ammonium sulfate suspension (Sigma-Aldrich, E2884, 10 U/μL). Compounds 37-39 in 100% (v/v) DMSO solutions were diluted by 10-fold into cruzain assay buffer to make 1 mL-samples, each containing 2 mM compound. For the experimental sample, 4 μL of esterase suspension was added to the reaction mixtures (40 U/mL), which was immediately placed on a low-speed orbital shaker in a 37° C. incubator. In the meantime, a negative control (lacking esterase) and a blank control (buffer only) were included. Aliquots (140 μL) of the reaction mixtures were removed at 0, 15, 30, 60, 120, 180, and 300 min, and reactions were quenched by the addition of MeCN (260 μL). The resulting solution was vortexed, followed by centrifugation to precipitate the protein, and the resulting compounds in the supernatant were analyzed by HPLC-MS with detection at 270 nm.
Rates of de-acylation reactions of SMAI prodrugs 37-39 were obtained upon evaluation of the first-order loss of reagent as fitted to eq. 6, in which A0 and C are the initial and final fraction of unhydrolyzed compound, respectively, k is the pseudo-first order rate constant, from which the half-life was t1/2=ln 2/k.

Series [5] deals with T. b. brucei bloodstream forms. The series can be described thus: Growth of axenic cultures of T. b. brucei bloodstream forms (BSFs). Conditions: read-out: EC50 T. b. brucei BSF; axenic culture.
Series [6] in a line: Solubility of cruzain inhibitors in 10% DMSO, light scattering. The series is classed as physicochemical. As for the experimental part: Synthetic PVHIs such as 5-16 and 22-24 at final concentrations of 1-200 μM were added to 0.25 mL solutions of 10% DMSO (v/v) in clear 96-well Greiner plates, and absorbance at 620 nm was measured using a BioTek M2 Synergy plate reader at t=0 and 120 min to evaluate increased light scattering and precipitated inhibitor.

Another series addresses human cathepsin L (Homo sapiens (Human), UniProt P07711). Description: Human cathepsin L inhibition, Z-FR-AMC assay. Conditions: for Ki: pH 5.5, 25° C. The series is classed as biochemical. The gist of the method: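 Recombinant human enzymes were assayed at 25°C in sodium acetate pH 5.5 with 1 mM CHAPS, 1 mM EDTA, 5 mM DTT and 10% DMSO final, using the fluorogenic substrate Z-FR-AMC. AMC release (ex 360/em 460 nm) was followed over 30–60 min and converted to rates (μM/s) via an AMC standard curve.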

A further series has as its target human cathepsin B (Homo sapiens (Human), UniProt P07858). Description: Human cathepsin B inhibition, Z-FR-AMC assay. In kind it is biochemical. Conditions: pH 5.5, 25° C. As for the experimental part: Recombinant human cathepsins B and L were purchased from Millipore Sigma and used without further treatment. The solid proteins were dissolved into a solution of 50 mM sodium acetate (pH 5.5), 1 mM EDTA, 1 mM CHAPS, 10% (v/v) DMSO, and 5 mM DTT to final concentrations of […] in 20-mL aliquots, and stored at −80° C. until needed. These samples were then diluted into the same buffer to concentrations of −100 nM, and these dilutions were stored at 4° C. and used daily until depletion.
For assays of cathepsin L and B, inhibitors were evaluated in 0.25-mL reaction mixtures containing a buffer of sodium acetate (pH 5.5), 1 mM CHAPS, 1 mM Na2EDTA, and 5 mM DTT at 25° C. The fluorogenic substrate Cbz-Phe-Arg-7-amino-4-methyl-coumarin (Z-FR-AMC) was dissolved in 100% DMSO, as were all inhibitors, and aliquots of both substrates and inhibitors were added to reaction mixtures to final concentrations of DMSO of 10% (v/v). […] Formation of the fluorescent product AMC was monitored over 30-60-minute time courses for reaction mixtures in 96-well black microplates (Corning Costar®). Rates of peptidolysis of the dipeptide-AMC substrate(s) were measured on either a SpectraMax M5 (Molecular Devices) or a Synergy HTX (Biotek, Wisnooki, VT) microplate reader with λex=360 nm, λem=460 nm in ≥8-sec intervals. Control samples excluded substrate. The measured relative fluorescence units (RFUs) of generated AMC were converted to reaction rates of μM/s by use of a standard curve of known AMC concentrations obtained for both plate readers.

The target in the next series is human cathepsin S (Homo sapiens (Human), UniProt P25774). Description: Human cathepsin S inhibition. The series is classed as biochemical. Conditions: pH 5.5, 25° C., 10% DMSO. The procedure: Cruzain inhibitors were added at seven concentrations and one fixed concentration of Cbz-Phe-Arg-AMC, and time courses of AMC formation were analyzed as with cruzain.
Series [7] has as its system T. b. brucei procyclic forms. The series can be described thus: Growth of axenic cultures of T. b. brucei procyclic forms (PCFs). The series is classed as cell-based, Trypanosoma brucei brucei. Conditions: axenic culture, read-out: EC50 T. b. brucei PCF.
The test system of a further series is human dermal fibroblasts. Description: Human cell toxicity, resazurin viability. In kind it is cell-based. Conditions: human dermal fibroblasts; read-out: Human Cell Cytotoxicity CC50. As for the experimental part: Primary human dermal fibroblast (HDF) cells were used to evaluate human cell toxicity of cruzain inhibitors. HDF cells were plated in a 384-well plate at 2400 cells per well (62,000 cells mL^−1). Inhibitors in 100% DMSO were added in duplicate to final concentrations of 0.001-0.1 mM and 1% DMSO (v/v) with 1% DMSO as a control sample, and cells were cultured at 37° C. for 48 h, followed by the addition of resazurin. Cell viability was then assessed by reading of fluorescence (excitation/emission: 544 nm/590 nm) after an additional 24 h of incubation.
A general note: The colour change of resazurin is a common sign of viable cells or microbes.

The nature of series [8]: Host cell cytotoxicity in the T. cruzi infection model. In kind it is cell-based, mouse. Conditions: mouse; host cardiomyoblasts; read-out: C2C12 Cytotoxicity CC50. The procedure: The plates were incubated at 37° C. for 48 h, and the wells were fixed with 2% paraformaldehyde in PBS and stained with 5 μg mL-1 4,6-diamidino-2-phenylindole. After at least 30 min of incubation at room temperature in the dark, the plates were read in an automated microscope, ImageXpress Micro XL (Molecular Devices), and the images were analyzed by custom-built software to quantify and assess viability of the parasites, as well as the host cells independently. The compilation of data was used to calculate the antiparasitic activity (EC50) and host cytotoxicity (CC50).
T. cruzi infection was evaluated in C2C12 murine cardiomyoblast cells. […] The wells were fixed with 2% PFA in PBS, and stained by 5 μg/ml of DAPI. After >30 min of incubation in a dark environment, the plates were read on an ImageXpress MicroXL microscope (Molecular Devices). The images were analyzed to quantify parasites as well host cells.

Series [9] in a line: Thiolation of inhibitors with glutathione, LCMS. Conditions: 1 mM glutathione, 0.5 mM compound, Tris pH 8.0, 10% DMSO, room temperature. In kind it is physicochemical. As for the experimental part: Samples were analyzed by HPLC-MS (as described above) by injecting 0.01 mL aliquots onto a Luna […] C18(2) 100 Å, 4.6 mm, 50 mm column (Phenomenex) using the HPLC method described in the chemistry section at 0-6 h time points. […] Integration of the chromatographic peaks of the inhibitors and their GSH adducts at each time point was used to determine the rate of GSH adduct formation.

Another series has as its target SARS-CoV-2 3CL protease (Severe acute respiratory syndrome coronavirus 2 (2019-nCoV) (SARS-CoV-2), UniProt P0DTD1). Description: biochemical. Conditions: pH 7.5; read-out: Ki* 3CLpro. In kind it is biochemical.
Series [10] has as its system trypanosomes (T. b. brucei, T. cruzi). Description: Anti-trypanosomal activity, culture not stated. The series is classed as cell-based. Conditions: culture (T. b. brucei PCF/BSF or T. cruzi-infected cardiomyoblasts) not stated.
The test system of series [11] is T. cruzi epimastigotes (strain Y). Description: Growth of axenic cultures of T. cruzi epimastigotes. Conditions: read-out: T. cruzi axenic culture EC50; epimastigotes.
Where [12] appears, read: obtained >10 minutes following initiation of reaction by addition of enzyme, read-out: Ki* Cruzain.
Setting [13] is: apparent tight-binding inhibition constant, 25° C., read-out: Ki*.
The mark [14] stands for this setting: apparent initial inhibition constant, 25° C., read-out: Ki.

human cathepsin L, sequence (P07711 114-333): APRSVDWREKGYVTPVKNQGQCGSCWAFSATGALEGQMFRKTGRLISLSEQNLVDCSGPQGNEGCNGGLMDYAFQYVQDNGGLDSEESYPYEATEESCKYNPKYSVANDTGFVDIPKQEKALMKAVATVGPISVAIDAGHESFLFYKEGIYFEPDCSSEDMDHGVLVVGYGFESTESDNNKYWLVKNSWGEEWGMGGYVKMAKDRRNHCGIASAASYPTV
cruzain, sequence (P25779 123-467 limits assumed): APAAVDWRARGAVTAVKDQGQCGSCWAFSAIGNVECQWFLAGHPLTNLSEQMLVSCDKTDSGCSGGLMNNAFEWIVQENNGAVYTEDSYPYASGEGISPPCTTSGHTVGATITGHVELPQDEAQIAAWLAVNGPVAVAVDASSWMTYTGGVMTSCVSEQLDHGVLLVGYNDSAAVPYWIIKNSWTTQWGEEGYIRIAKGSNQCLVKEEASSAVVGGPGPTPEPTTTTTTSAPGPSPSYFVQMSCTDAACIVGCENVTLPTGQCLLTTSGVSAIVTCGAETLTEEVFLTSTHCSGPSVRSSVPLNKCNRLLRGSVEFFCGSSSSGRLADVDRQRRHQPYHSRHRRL
human cathepsin S, sequence (P25774 115-331): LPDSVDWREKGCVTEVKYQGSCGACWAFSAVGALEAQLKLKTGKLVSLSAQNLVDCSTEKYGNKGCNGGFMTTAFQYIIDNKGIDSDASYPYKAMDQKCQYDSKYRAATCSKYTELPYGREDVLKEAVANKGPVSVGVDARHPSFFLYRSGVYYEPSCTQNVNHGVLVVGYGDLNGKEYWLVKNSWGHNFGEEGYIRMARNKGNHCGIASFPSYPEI

For `CC(C)C(=O)OC1Oc2ccccc2C[C@@H]1NC(=O)[C@H](Cc1ccccc1)NC(=O)N1CCN(C)CC1` (stereo partly drawn) [Compound 39], on cruzain (setting [12]), the Ki is > 5000 nM. Moreover, the EC50 in [1] turned out to be 14000 ± 6000 nM; in series [2], 4000 nM; in series [3] it was 310 nM; in [5], 4000 ± 200 nM. Also, in series [4], the “half-life of conversion to compound 36” value is on record as 16 min.
For the compound `CC(=O)OC1Oc2ccccc2C[C@@H]1NC(=O)[C@H](Cc1ccccc1)NC(=O)N1CCN(C)CC1` (stereo partly drawn) [Compound 37, (3S)-3-((S)-2-(4-methylpiperazine-1-carboxamido)-3-phenylpropanamido)chroman-2-yl acetate], the Ki on cruzain (setting [13]) is 1000 nM; at cruzain (setting [12]), ~1000 nM. Also, the EC50 stood at 13000 ± 2000 nM in series [1], 2500 nM in [2], 310 nM in series [3] and 3700 nM in [5]. Also, in series [4] (over 3 h, pH 7.5), the “degradation in buffer without esterase” value is listed as “about 10%”. The “half-life of conversion to compound 36” value in series [4] was found to be 48 min.
On to `O=C(N[C@@H](Cc1ccccc1)C(=O)N[C@H](/C=C/c1ccc([N+](=O)[O-])cc1)Cc1ccccc1)OCc1ccccc1` [Compound 6, Benzyl ((S)-1-(((S,E)-4-(4-Nitrophenyl)-1-phenylbut-3-en-2-yl)-amino)-1-oxo-3-phenylpropan-2-yl)carbamate], for which the Ki on cruzain (setting [13]) is 370 ± 20 nM. In addition, the aqueous solubility entry in series [6] was “poor aqueous solubility”.
For the compound `CCC(=O)OC1Oc2ccccc2C[C@@H]1NC(=O)[C@H](Cc1ccccc1)NC(=O)N1CCN(C)CC1` (stereo partly drawn) [Compound 38], the Ki at cruzain (setting [12]) was > 5000 nM. Moreover, the EC50 stood at 2500 nM in series [2], 620 nM in series [3] and 3100 ± 200 nM in series [5]. Also, in series [4], the “half-life of conversion to compound 36” value amounted to 24 min.
As for `O=C(N[C@@H](Cc1ccccc1)C(=O)N[C@H](/C=C/c1ncccn1)Cc1ccccc1)OCc1ccccc1` [Compound 7, Benzyl ((S)-1-Oxo-3-phenyl-1-(((S,E)-1-phenyl-4-(pyrimidin-2-yl)-but-3-en-2-yl)amino)propan-2-yl)carbamate], the Ki at cruzain (Ki* Cruzain, obtained >10 minutes following initiation of reaction by addition of enzyme) was 120 to 400 nM and 310 nM; on cruzain (setting [14]), 28000 ± 1000 nM; at cruzain (setting [13]), 380 nM; at human cathepsin L (10% DMSO, read-out: Ki* Human Cathepsin L), 1100 ± 100 nM; on human cathepsin B (10% DMSO, read-out: Ki* Human Cathepsin B), 32000 ± 3000 nM; at human cathepsin S, 370 ± 20 nM. The k4 at cruzain (conversion of EI* back to EI, from kobs replot or recovery after preincubation and dilution) is 0.0018 ± 0.0003 s⁻¹. Moreover, the EC50 in [7] (Trypanosoma brucei) was 5000 to 15000 nM. Besides, the CC50 in the series on human dermal fibroblasts was > 100000 nM. Also, the CC50 at 48 h in [8] was > 10000 nM. Also, the “Rate of Thiolation, k” value in series [9] was “Negligible”.
As for `O=C(N[C@@H](Cc1ccccc1)C(=O)N[C@H](/C=C/c1ccccc1)Cc1ccccc1)OCc1ccccc1` [Compound 5, Benzyl ((S)-1-(((S,E)-1,4-Diphenylbut-3-en-2-yl)amino)-1-oxo-3-phenylpropan-2-yl)carbamate], the Ki on cruzain (setting [14]) amounted to 1800 ± 100 nM; on cruzain (setting [13]), 870 nM. In addition, the aqueous solubility entry in series [6] was “poor aqueous solubility”.
With `COC(=O)c1ccc2c(c1)CC(NC(=O)C(Cc1ccccc1)NC(=O)OCc1ccccc1)C(O)O2` (stereo not drawn) [Compound 35], the Ki is 18 ± 0.5 nM at cruzain (setting [12]), 10.8 ± 0.8 nM on human cathepsin L (read-out: Ki* hCatL), 670 ± 30 nM on human cathepsin B (read-out: Ki* hCatB) and > 10000 nM at SARS-CoV-2 3CL protease. Further, on human cathepsin L, the “inhibits cathepsin L more potently than cruzain” value is on record as 6 fold. Moreover, the EC50 in [1] was 3500 ± 300 nM; in [7], 6700 nM; in series [2], 2500 nM; in series [10], 3500 to 6700 nM; in series [11], 2000 to 20000 nM.
